The target of test [1] is T1, adenosine A2a receptor (A2aR) (Homo sapiens, UniProt P29274).
T1 construct: expressed in transfected cells; host or cells: CHO-K1
As to the kind of experiment: Inhibition of the adenosine A2a receptor cAMP signaling pathway in CHO-K1/A2aR cells (HTRF). The note with it: CHO-K1/A2aR cells, cAMP, NECA 20 nM; Table 1. It is filed as cell-based. An excerpt:
(§1) Determination of the inhibition activity of the compounds of the present invention on the adenosine A2a receptor (A2aR) cAMP signaling pathway, the adenosine A2b receptor (A2bR) cAMP signaling pathway, the adenosine A1 receptor (A1R) cAMP signaling pathway and the adenosine A3 receptor (A3R) cAMP signaling pathway.
(§2) The inhibition activity of the compounds of the present invention on the adenosine A2a receptor (A2aR) cAMP signaling pathway, the adenosine A2b receptor cAMP signaling pathway, the adenosine A1 receptor cAMP signaling pathway and the adenosine A3 receptor cAMP signaling pathway was determined by the following method. The experimental method is briefly described as follows:
2.1 Adenosine A2a receptor
CHO-K1/A2aR cells were cultured in DMEM/F12 medium containing 10% fetal bovine serum and 800 μg/ml bleomycin. The cells were digested with the cell separation buffer during the experiment. The cells were resuspended in the balanced salt buffer containing 20 mM HEPES and 0.1% bovine serum albumin and counted, and the cell density was adjusted to 10^6 cells/ml. In the 384-well plate, each well was added with 5 μl of cell suspension, and 2.5 μl of test compound (4× concentration) formulated with the balanced salt buffer containing 20 mM HEPES, 0.1% bovine serum albumin, 54 μM rolipram and 2.7 U/ml adenosine deaminase, and the plate was incubated at room temperature for 30 minutes. Each well was then added with 2.5 μl of […] (4× concentration) formulated with the balanced salt buffer containing 20 mM HEPES, 0.1% bovine serum albumin, 54 μM rolipram and 2.7 U/ml adenosine deaminase, and the plate was incubated at room temperature for 30 minutes. The final concentrations of the compounds were: 10000, 2000, 400, 80, 16, 3.2, 0.64, 0.128, 0.0256, 0.00512, and 0.001024 nM. The final concentration of […] was 20 nM. Intracellular cAMP concentration was detected with the cAMP dynamic 2 kit. cAMP-d2 and Anti-cAMP-Eu-Cryptate were diluted respectively with the cAMP lysis buffer at a ratio of 1:4. Each well was added with 5 μl of diluted cAMP-d2, followed by addition of 5 μl of diluted Anti-cAMP-Eu-Cryptate, and the plate was incubated at room temperature in the dark for 1 hour. The HTRF signal values were read by the PHERAstar multi-function microplate reader.
Background: In TR-FRET formats the signal depends on donor and acceptor labels being close together.

Test [2] has as its target T2, adenosine A2b receptor (A2bR) (Homo sapiens, UniProt P29275).
T2 construct: expressed in transfected cells; host or cells: CHO-K1
T2 sequence (P29275 1-332): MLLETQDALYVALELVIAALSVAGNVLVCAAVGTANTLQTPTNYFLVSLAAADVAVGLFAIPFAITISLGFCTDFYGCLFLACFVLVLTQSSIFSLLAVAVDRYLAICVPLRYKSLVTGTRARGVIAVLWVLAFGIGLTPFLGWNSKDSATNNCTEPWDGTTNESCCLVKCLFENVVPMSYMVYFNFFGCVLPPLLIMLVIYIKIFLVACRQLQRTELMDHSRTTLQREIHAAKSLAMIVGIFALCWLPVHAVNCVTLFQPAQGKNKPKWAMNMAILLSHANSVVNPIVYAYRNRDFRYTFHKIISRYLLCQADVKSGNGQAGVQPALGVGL
Description: Inhibition of the adenosine A2b receptor cAMP signaling pathway in CHO-K1/A2bR cells (HTRF). It is filed as cell-based. The note with it: ethyl carbazole 1 μM, Table 2.
Text: as §1, §2
2.2 Adenosine A2b Receptor
CHO-K1/A2bR cells were cultured in DMEM/F12 medium containing 10% fetal bovine serum and 1 mg/ml G418. The cells were digested with the cell separation buffer during the experiment. The cells were resuspended in the balanced salt buffer containing 20 mM HEPES and 0.1% bovine serum albumin and counted, and the cell density was adjusted to 10^6 cells/ml. In the 384-well plate, each well was added with 5 μl of cell suspension, and 2.5 μl of test compound (4× concentration) formulated with the balanced salt buffer containing 20 mM HEPES, 0.1% bovine serum albumin, 54 μM rolipram and 2.7 U/ml adenosine deaminase, and the plate was incubated at room temperature for 30 minutes. Each well was then added with 2.5 μl of […] (4× concentration) (Torcis, 1691/10) formulated with the balanced salt buffer containing 20 mM HEPES, 0.1% bovine serum albumin, 54 μM rolipram and 2.7 U/ml adenosine deaminase, and the plate was incubated at room temperature for 30 minutes. The final concentrations of the compounds were: 100000, 10000, 1000, 100, 10, 1, 0.1 and 0 nM. The final concentration of […] was 1 μM. Intracellular cAMP concentration was detected with the cAMP dynamic 2 kit. cAMP-d2 and Anti-cAMP-Eu-Cryptate were diluted respectively with the cAMP lysis buffer at a ratio of 1:4. Each well was added with 5 μl of diluted cAMP-d2, followed by addition of 5 μl of diluted Anti-cAMP-Eu-Cryptate, and the plate was incubated at room temperature in the dark for 1 hour. The HTRF signal values were read by the PHERAstar multi-function microplate reader.

The structures appear in SMILES notation.

The values that follow come from US11014904B2, “1,2,4-triazine-3-amine derivative, preparation method therefor, and use thereof in medicine” (Jiangsu Hengrui Medicine Co., Ltd., priority 2017, dated 2021).

T1 sequence (P29274 whole entry): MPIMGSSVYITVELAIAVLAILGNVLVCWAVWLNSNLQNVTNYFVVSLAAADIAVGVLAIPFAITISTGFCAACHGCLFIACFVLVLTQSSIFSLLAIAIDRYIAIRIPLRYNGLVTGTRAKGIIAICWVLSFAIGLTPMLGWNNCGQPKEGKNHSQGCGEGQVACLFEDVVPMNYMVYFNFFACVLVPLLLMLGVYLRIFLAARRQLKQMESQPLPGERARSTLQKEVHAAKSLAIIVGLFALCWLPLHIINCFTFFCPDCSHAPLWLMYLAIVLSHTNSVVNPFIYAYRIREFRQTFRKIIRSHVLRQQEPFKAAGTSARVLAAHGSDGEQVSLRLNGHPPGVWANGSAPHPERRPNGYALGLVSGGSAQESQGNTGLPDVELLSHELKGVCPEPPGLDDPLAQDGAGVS

The term IC50 denotes the concentration at which inhibition is half-maximal. Read a low IC50 as greater potency in that assay. For the compound `Nc1nnc(-c2cc(Cl)c3ncccc3c2)c(-c2ccccc2)n1` [Example 4, 6-(8-Chloroquinolin-6-yl)-5-phenyl-1,2,4-triazin-3-amine], the IC50 in test [1] turned out to be 0.7 nM; in test [2], 4 nM.
Taken in the same sequence, the figures for `Cc1ccc(-c2nc(N)nnc2-c2cc(C)c3ncccc3c2)o1` [Example 5, 5-(5-Methylfuran-2-yl)-6-(8-methylquinolin-6-yl)-1,2,4-triazin-3-amine] were 0.4 nM and 46 nM.
As for `Cc1ccnc2ccc(-c3nnc(N)nc3-c3ccccc3)cc12` [Example 14, 6-(4-Methylquinolin-6-yl)-5-phenyl-1,2,4-triazin-3-amine], the IC50 came out at 0.1 nM in test [1] and 3 nM in test [2].
`COc1ccnc2ccc(-c3nnc(N)nc3-c3ccccc3)cc12` [Example 23, 6-(4-Methoxyquinolin-6-yl)-5-phenyl-1,2,4-triazin-3-amine]: the IC50 in test [1] amounted to 0.4 nM; in test [2], 17 nM.
For the compound `COc1cc(-c2nnc(N)nc2-c2ccccc2)cc2cccnc12` [Example 25, 6-(8-Methoxyquinolin-6-yl)-5-phenyl-1,2,4-triazin-3-amine], the IC50 was determined as 1.5 nM in test [1] and 4 nM in test [2].
As to `Cc1ncnc2ccc(-c3nnc(N)nc3-c3ccc(Cl)cc3)cc12` [Example 46, 5-(4-Chlorophenyl)-6-(4-methylquinazolin-6-yl)-1,2,4-triazin-3-amine], the IC50 was 1.6 nM in test [1] and 18 nM in test [2].
